{"source": "patent US4220755A", "about": "“Fortimicin B derivatives and process for production thereof” (Abbott Laboratories, priority 1976, dated 1980)", "assay_in_all_cases": "MIC, agar dilution method, pH 8.0", "assay_type_in_all_cases": "cell-based", "key": {"[1]": {"test_system": "Staphylococcus aureus KY4279 ATCC6538P", "conditions": "pH 8.0, Staphylococcus aureus KY4279, read-out: Minimum inhibition concentration (MIC), SA", "experimental": "(§1) Measurement was carried out according to the agar dilution method, using a medium of pH 8.0, or the Japanese Antibiotic Medicament Standard, using a medium of pH 7.2 Units are in mcg/ml.\nS.A.: Staphylococcus aureus KY4279 ATCC6538P"}, "[2]": {"test_system": "Proteus vulgaris KY4277 ATCC6897", "conditions": "ATCC6897; pH 8.0; Proteus vulgaris KY4277; read-out: Minimum inhibition concentration (MIC), PV", "experimental": "as §1"}, "[3]": {"test_system": "Shigella sonnei KY4281 ATCC9290", "conditions": "ATCC9290; pH 8.0; Shigella sonnei KY4281; read-out: Minimum inhibition concentration (MIC), SS", "experimental": "as §1"}, "[4]": {"test_system": "Eschericia coli KY4271 ATCC26", "conditions": "Escherichia coli, ATCC26; pH 8.0; E. coli KY4271; read-out: Minimum inhibition concentration (MIC), EC", "experimental": "as §1\nE.C.: Eschericia coli KY4271 ATCC26"}, "[5]": {"test_system": "Salmonella typhosa KY4278 ATCC9992", "conditions": "Salmonella enterica, pH 8, read-out: Minimum inhibition concentration (MIC), ST", "experimental": "as §1\nS.T.: Salmonella typhosa KY4278 ATCC9992"}, "[6]": {"test_system": "Klebsiella pneumoniae KY4275 ATCC10031", "conditions": "ATCC10031; pH 8.0; Klebsiella pneumoniae KY4275; read-out: Minimum inhibition concentration (MIC), KP", "experimental": "as §1\nK.P.: Klebsiella pneumoniae KY4275 ATCC10031."}, "Bacillus subtilis KY4273": {"test_system": "Bacillus subtilis KY4273", "conditions": "pH 8.0; Bacillus subtilis KY4273; read-out: Minimum inhibition concentration (MIC), BS", "experimental": "as §1\nB.S.: Bacillus subtilis KY4273"}}}
{"smiles": "CO[C@H]1[C@@H](O)[C@H](N)[C@@H](O[C@H]2O[C@H]([C@H](C)N)CC[C@H]2N)[C@H](O)[C@@H]1N(C)CCCCCN", "note": "[Compound 22, 4-N-(5-aminopentyl)fortimicin B]", "values": [{"measurement": "MIC", "setting": "[1]", "value": 1.25, "unit": "µg/mL"}, {"measurement": "MIC", "setting": "[2]", "value": 10, "unit": "µg/mL"}, {"measurement": "MIC", "setting": "[3]", "value": 5, "unit": "µg/mL"}, {"measurement": "MIC", "setting": "[4]", "value": 5, "unit": "µg/mL"}, {"measurement": "MIC", "setting": "[5]", "value": 2.5, "unit": "µg/mL"}, {"measurement": "MIC", "setting": "[6]", "value": 20, "unit": "µg/mL"}, {"measurement": "MIC", "setting": "Bacillus subtilis KY4273", "value": 0.63, "unit": "µg/mL"}]}
